Measured values reported in patent US9410142B2, “Dendrimer-based excipients for the attenuation of protein aggregation” (Massachusetts Institute of Technology, priority 2010, dated 2016).

How the values were obtained:
[1] = biological target: Concanavalin A (Con A) (Canavalia ensiformis, UniProt P02866); experiment: Con A aggregation / shelf-life at pH 6.5 and 37° C.; assay type: physicochemical; details: isotonic concentrations, 40 mM sodium phosphate pH 6.5, 37° C., time for 5% loss of protein vs no additive
Protocol: This Shelf-Life Extension Factor was determined by comparing the length of time, t95, for a 5% loss of protein when in the presence of the compounds to the original length of time, t95,0 for a 5% loss. For comparison purposes, isotonic concentrations (as determined by VPO) of the compounds were used and Shelf-Life Extension Factor values for commonly used excipients at isotonic concentrations are shown as well. Shelf-life values of aCgn were determined at 52.5° C. and at 37° C. for Con A.

[2] = biological target: α-chymotrypsinogen A (aCgn) (Bos taurus, UniProt P00766); experiment: DSC denaturation midpoint temperature (Tm) of aCgn; assay type: physicochemical, Bovine; details: for dTm/d[3] aCgn denaturation midpoint temperature increment: 1 mg/mL aCgn, 20 mM sodium citrate pH 5, maximum dendrimer 0.2 mol/L; for rate of increase of Tm of aCgn: concentrations less than 0.2 mol/L
Protocol: The thermodynamic stability of aCgn in the presence of the arginine salts was determined by DSC (Microcal VP-Differential Scanning calorimeter located in the Biophysical Instrumentation Facility (BIF) at MIT). Each reading began with a minimum of three buffer-buffer up and down scans (in this case, the buffer also contains the cosolute of interest) to establish a reproducible thermal history followed by a single protein-buffer up scan. aCgn was analyzed at a concentration of 1 mg/mL in a 20 mM sodium citrate pH 5 buffer containing the cosolute of interest and a scan rate of 90° C./hour. The data was analyzed in the MicroCal Origin® plotting software. In the analysis, the last buffer-buffer reference scan was first subtracted from the data and then the data was normalized with respect to the protein concentration, cell volume, and scan rate. The baseline (which was progressed through the peak) was then subtracted from the plot and the denaturation midpoint temperature, Tm, was taken as the temperature at the peak maximum of the unfolding event. For each arginine salt, three concentrations (including zero concentration) were tested and Tm values with respect to cosolute concentration were fitted to a linear trend.
The thermostability of aCgn at 1 mg/mL in the presence of the modified dendrimers was assessed by determining the denaturation midpoint temperature (Tm) from DSC scans, which is a qualitative indicator of how the conformational stability of the protein is perturbed. Ghosh K et al. (2009) Proc Natl Acad Sci USA 106:10649-10654.

Row | Structure (SMILES) | Con A t95/t95, 0 (Shelf-Life Extension Factor) [1] | dTm/d[3] aCgn denaturation midpoint temperature increment [2] [K * L/mol] | rate of increase of Tm of aCgn [2] [° C.*M^−1] | Con A t95/t95, 0 (Shelf-Life Extension Factor) ([1]; listed as Dend. 0 Gdm(H2PO4)) | Con A t95/t95, 0 (Shelf-Life Extension Factor) ([1]; listed as phosphate form)
1 | N=C(N)NCCNC(=O)CCN(CCC(=O)NCCNC(=N)N)CCN(CCC(=O)NCCNC(=N)N)CCC(=O)NCCNC(=N)N.O=S(=O)(O)O.O=S(=O)(O)O.O=S(=O)(O)O [Gdm(SO4)1/2] | 5.9 | 15.2 | 15.2 | – | –
2 | N=C(N)NCCNC(=O)CCN(CCC(=O)NCCNC(=N)N)CCN(CCC(=O)NCCNC(=N)N)CCC(=O)NCCNC(=N)N.O=P(O)(O)O.O=P(O)(O)O.O=P(O)(O)O.O=P(O)(O)O.O=P(O)(O)O.O=P(O)(O)O [Gdm(H2PO4)] | – | 37.4 | 37.4 | 1.6 | minimal improvement
